How the values were obtained:
Format in all cases: cell-based
[1] = system: HepG2; assay: Cell proliferation assay (CellTiter-Glo), HepG2; settings: Homo sapiens, HepG2, 72 h; 3 days
Experimental: (§1) The cell proliferation assays were tested in several cell lines, including HepG2,HCT116, A549, HPAF-II, CFPAC-1,HuH7, SNU398,Hep3B, and HEK293. All cell lines are from ATCC. HepG2, HPAF-II and HEK293 are cultured in Eagle's MEM media supplemented with fetal bovine serum. HCT116 is cultured in McCoy media supplemented with fetal bovine serum. Huh-7 is cultured in DMEM low glucose (1000 mg/L glucose) with 10% FBS, 1% L-Glutamate and 1% Penicillin/Streptomycin. SNU398 is cultured in RPMI with 10% FBS with 1% L-Glutamate and 1% Penicillin/Streptomycin. Hep3B is cultured in Eagle's MEM with 10% FBS, 1% L-Glutamate and 1% Penicillin/Streptomycin. A549 is cultured in RPMI media supplemented with fetal bovine serum while CFPAC-1 is cultured in IMDM media supplemented with fetal bovine serum. All media and serum are purchased from Gibco (Lifetech). All cells were grown in a temperature controlled incubator at 37° C. and 5% CO2.
(§2) Cell proliferation assay was performed using CellTiter-Glo Luminescent Cell Viability Assay (Promega) following manufacturer's instructions. The cell-line of interest was treated with compounds that were serial diluted in its respective media. Plates were incubated for 3 days at 37° C. in 5% CO2. After 3 days, an equal volume of Cell Titer Glo reagent was added. Plates were rocked on a rotator for 2 h. 100 μL of each well were transferred to a 96-well opaque plate, and luminescence emitted was measured with the Tecan Safire II.

[2] = system: HCT-116; assay: Cell proliferation assay (CellTiter-Glo), HCT-116; settings: Homo sapiens, HCT-116, 72 h; 3 days
Experimental: as §1, §2

[3] = target: T1, SMYD3 (Homo sapiens, UniProt Q9H7B4); assay: Target engagement assay, SMYD3 levels by Western blot in HEK293 cells transfected with Myc-SMYD3; design: host or cells: HEK293 (ATCC); settings: 25 μM, overnight, HEK293 transiently transfected with Myc-tagged SMYD3
T1 sequence (Q9H7B4 1-428): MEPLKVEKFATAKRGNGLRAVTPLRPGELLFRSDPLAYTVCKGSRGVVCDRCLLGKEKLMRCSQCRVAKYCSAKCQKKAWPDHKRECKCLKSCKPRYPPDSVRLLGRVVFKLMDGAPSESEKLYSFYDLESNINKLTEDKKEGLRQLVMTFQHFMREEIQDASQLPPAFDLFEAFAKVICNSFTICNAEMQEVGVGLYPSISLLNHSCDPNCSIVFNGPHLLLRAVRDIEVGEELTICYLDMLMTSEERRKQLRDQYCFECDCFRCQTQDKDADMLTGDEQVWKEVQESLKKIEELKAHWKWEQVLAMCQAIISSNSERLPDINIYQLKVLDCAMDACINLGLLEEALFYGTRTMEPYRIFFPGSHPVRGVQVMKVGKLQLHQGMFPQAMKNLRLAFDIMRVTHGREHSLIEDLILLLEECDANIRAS
Experimental: The target engagement assay was performed with HEK293 that is engineered to overexpress SMYD3 (HEK293-SMYD3). The plasmid SMYD3 (Myc-DDK-tagged-Human SET and MYND domain containing 3) was purchased from Origene (RC230064) and transfected with lipofectamine 2000 (Invitrogen) into HEK293 (ATCC). The cell line is cultured in Eagle's MEM media supplemented with fetal bovine serum and geneticin (Invitrogen). Presence of over-expressed SMYD3 is confirmed with western blot with antibody against SMYD3 and the MYC tag as well as with RT-PCR with SMYD3 primers.
The cells were seeded in 6 well plates. After seeding for 24 h, the cells were treated with either DMSO or 25 μM compound and incubated for 24 hr. The cells were trypsinized and the lysate was extracted with RIPA buffer (Santa Cruz). The total protein concentration of lysate is quantified using the standard Bradford assay (Biorad protein assay, microplate standard assay).
Western blot analysis was performed using antibody against SMYD3 in HEK293 cells over-expressing SMYD3 (HEK293-SMYD3) treated with compound at different time points. 15.0 μg of cell lysate was diluted in 2× Laemmli sample buffer (Bio-Rad) and boiled at 100° C. on heat block for 5 min. Lysates were separated using NuPAGE® 4-12% Bis-Tris precast polyacrylamide gels (Lifetech) at 200 V, […] for 40 min. […]

**Q.** Which GI50 [1] does the source give for CCCOC(=O)N1CCN(C(=O)c2ccc3c(Cl)cc(-c4ccccc4)nc3c2)C[C@H]1C [B019, Propyl (R)-4-(4-chloro-2-phenylquinoline-7-carbonyl)-2-methylpiperazine-1-carboxylate] here?
**A.** 18.9 µM

**Q.** What about the GI50 [2] of the same compound?
**A.** 17.9 µM

**Q.** And the “reduction in SMYD3 levels” value [3]?
**A.** 35-37%
